The source made the active and inactive calls. The rule behind the calls is not given here.
Tested on: rodent carcinogenicity bioassays, tumor incidence
Assay: CCRIS carcinogenicity studies
How it was run: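 NCI-built, expert-reviewed records of carcinogenicity and related test outcomes (mutagenicity, tumor promotion/inhibition) compiled from published and report sources, historical span 1985-2011, not updated.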

CC#N
carcinogen call (Species: MOUSE, Strain/Sex: B6C3F1/FEMALE, Route: INHALATION, Dose: 0, 50, 100, 200 PPM 6 HR/D 5 D/WK FOR 103 WK (STUDY DURATION: 105 WK), Dose: 0, 50, 100, 200 PPM 6 HR/D 5 D/WK FOR 103 WK (STUDY DURATION: 105 WK)): inactive; negative
carcinogen call (Species: MOUSE, Strain/Sex: B6C3F1/MALE, Route: INHALATION, Dose: 0, 50, 100, 200 PPM 6 HR/D 5 D/WK FOR 103 WK (STUDY DURATION: 105 WK), Dose: 0, 50, 100, 200 PPM 6 HR/D 5 D/WK FOR 103 WK (STUDY DURATION: 105 WK)): inactive; negative
carcinogen call (Species: RAT, Strain/Sex: F344/FEMALE, Route: INHALATION, Dose: 0, 100, 200, 400 PPM 6/HR/D 5 D/WK FOR 103 WK (STUDY DURATION: 105 WK), Dose: 0, 100, 200, 400 PPM 6/HR/D 5 D/WK FOR 103 WK (STUDY DURATION: 105 WK)): inactive; negative
carcinogen call (Species: RAT, Strain/Sex: F344/MALE, Route: INHALATION, Dose: 0, 100, 200, 400 PPM 6/HR/D 5 D/WK FOR 103 WK (STUDY DURATION: 105 WK), Dose: 0, 100, 200, 400 PPM 6/HR/D 5 D/WK FOR 103 WK (STUDY DURATION: 105 WK), Tumor Site: Type of Lesion: LIVER: HEPATOCELLULAR ADENOMA, HEPATOCELLULAR CARCINOMA, HEPATOCELLULAR ADENOMA OR CARCINOMA): equivocal

CCC(C)(CC)c1cc(NC(=O)c2c(OC)cccc2OC)on1
carcinogen call (Species: Mouse, Strain/Sex: B6C3F1/Male (60/Group), Route: Oral, Dose: 0, 100, 1000, 12,500 ppm of 85% isoxaben (plus 10.5% closely related isomers) in diet for 2 yr, study duration 2 yr, Dose: 0, 100, 1000, 12,500 ppm of 85% isoxaben (plus 10.5% closely related isomers) in diet for 2 yr, study duration 2 yr, Tumor Site: Type of Lesion: Liver: Hepatocellular adenomas (increased incidence and multiplicity at 12,500 ppm)): active; positive
carcinogen call (Species: Rat, Strain/Sex: Fischer 344/Female (60/Group), Route: Oral, Dose: 0, 125, 1250, 12,500 ppm of 85% isoxaben (plus 10.5% closely related isomers) in diet for 2 yr, study duration 2 yr, Dose: 0, 125, 1250, 12,500 ppm of 85% isoxaben (plus 10.5% closely related isomers) in diet for 2 yr, study duration 2 yr): inactive; negative
carcinogen call (Species: Rat, Strain/Sex: Fischer 344/Male (60/Group), Route: Oral, Dose: 0, 125, 1250, 12,500 ppm of 85% isoxaben (plus 10.5% closely related isomers) in diet for 2 yr, study duration 2 yr, Dose: 0, 125, 1250, 12,500 ppm of 85% isoxaben (plus 10.5% closely related isomers) in diet for 2 yr, study duration 2 yr, Tumor Site: Type of Lesion: Adrenal gland: pheochromocytoma (highest dose)): active; positive

CCOP(=O)(NC(C)C)Oc1ccc(SC)c(C)c1 (stereo unspecified)
carcinogen call (Species: Mouse, Strain/Sex: CD-1/Female (50/Group), Route: Oral, Dose: 0, 2, 10, 50 ppm of 89.2-90.5% fenamiphos in diet for 20 mo, study duration 20 mo, Dose: 0, 2, 10, 50 ppm of 89.2-90.5% fenamiphos in diet for 20 mo, study duration 20 mo): inactive; negative
carcinogen call (Species: Mouse, Strain/Sex: CD-1/Male (50/Group), Route: Oral, Dose: 0, 2, 10, 50 ppm of 89.2-90.5% fenamiphos in diet for 20 mo, study duration 20 mo, Dose: 0, 2, 10, 50 ppm of 89.2-90.5% fenamiphos in diet for 20 mo, study duration 20 mo): inactive; negative
carcinogen call (Species: Rat, Strain/Sex: Strain not specified/Female (50/Group), Route: Oral, Dose: 0, 2, 10, 50 ppm Nemacure (89% fenamiphos) in diet for 2 yr, study duration 2 yr, Dose: 0, 2, 10, 50 ppm Nemacure (89% fenamiphos) in diet for 2 yr, study duration 2 yr): inactive; negative
carcinogen call (Species: Rat, Strain/Sex: Strain not specified/Male (50/Group), Route: Oral, Dose: 0, 2, 10, 50 ppm Nemacure (89% fenamiphos) in diet for 2 yr, study duration 2 yr, Dose: 0, 2, 10, 50 ppm Nemacure (89% fenamiphos) in diet for 2 yr, study duration 2 yr): inactive; negative

CN(Cc1ccccc1)N=O
carcinogen call (Species: MOUSE, Strain/Sex: CD-1/MALE, FEMALE, Route: INTRAPERITONEAL, Dose: 0, 4 MG/KG 2/WK FOR 12 WK, 8 MG/KG 2/WK FOR 6 WK, 16 MG/KG 2/WK FOR 3 WK FOR TOTAL DOSES OF 96 MG/KG (STUDY DURATION: 40, Dose: 0, 4 MG/KG 2/WK FOR 12 WK, 8 MG/KG 2/WK FOR 6 WK, 16 MG/KG 2/WK FOR 3 WK FOR TOTAL DOSES OF 96 MG/KG (STUDY DURATION: 40, Tumor Site: Type of Lesion: FORESTOMACH: PAPILLOMA, CARCINOMA): active; positive
carcinogen call (Species: RAT, Strain/Sex: SPRAGUE-DAWLEY/MALE, Route: GAVAGE, Dose: 0, 0.5, 2 MG/KG IN SALINE ONCE ADMINISTERED TO RATS MAINTAINED ON ZINC-DEFICIENT DIET (STUDY DURATION: 14 WK), Dose: 0, 0.5, 2 MG/KG IN SALINE ONCE ADMINISTERED TO RATS MAINTAINED ON ZINC-DEFICIENT DIET (STUDY DURATION: 14 WK), Tumor Site: Type of Lesion: ESOPHAGUS: TUMOR): active; positive

Clc1ccc(C(c2ccc(Cl)cc2)C(Cl)(Cl)Cl)cc1
carcinogen call (Species: MOUSE, Strain/Sex: B6AKF1/MALE,FEMALE, Route: GAVAGE/ORAL, Dose: 46.4 MG/KG FROM D 7-28 OF LIFE THEN 140 PPM IN DIET, Tumor Site: Type of Lesion: LIVER: HEPATOMA): active; positive
carcinogen call (Species: MOUSE, Strain/Sex: B6C3F1/FEMALE, Route: ORAL, Dose: 0, 87, 175 PPM IN DIET, TWA, Dose: 0, 87, 175 PPM IN DIET, TWA): inactive; negative
carcinogen call (Species: MOUSE, Strain/Sex: B6C3F1/MALE,FEMALE, Route: GAVAGE/ORAL, Dose: 46.4 MG/KG FROM D 7-28 OF LIFE THEN 140 PPM IN DIET, Tumor Site: Type of Lesion: LIVER: HEPATOMA): active; positive
carcinogen call (Species: MOUSE, Strain/Sex: B6C3F1/MALE, Route: ORAL, Dose: 0, 22, 90 PPM IN DIET, TWA, Dose: 0, 22, 90 PPM IN DIET, TWA): inactive; negative
carcinogen call (Species: MOUSE, Strain/Sex: BALB/MALE, Route: ORAL, Dose: 0, 175 PPM IN ACETONE ADDED TO DIET FOR 8 WK THEN BY 125 PPM FOR 8 WK AND 100 PPM FOR 59 WK (STUDY DURATION: 75 WK), Tumor Site: Type of Lesion: LIVER: HEPATOCELLULAR ADENOMA, HEPATOCELLULAR CARCINOMA): active; positive
carcinogen call (Species: MOUSE, Strain/Sex: CF-1/MALE,FEMALE, Route: DIET, Dose: 0, 50, 100 PPM FOR 2 YR, Tumor Site: Type of Lesion: LIVER): active; positive
carcinogen call (Species: MOUSE, Strain/Sex: CF-1/MALE,FEMALE, Route: DIET, Dose: 100 PPM FOR 110 WK, Tumor Site: Type of Lesion: LIVER): active; positive
carcinogen call (Species: RAT, Route: ORAL, Tumor Site: Type of Lesion: LIVER): active; positive
carcinogen call (Species: RAT, Strain/Sex: OSBORNE-MENDEL/FEMALE, Route: ORAL, Dose: 0, 210, 420 PPM IN DIET, TWA, Dose: 0, 210, 420 PPM IN DIET, TWA): inactive; negative
carcinogen call (Species: RAT, Strain/Sex: OSBORNE-MENDEL/MALE, Route: ORAL, Dose: 0, 321, 642 PPM IN DIET, TWA, Dose: 0, 321, 642 PPM IN DIET, TWA): inactive; negative

CCCCNC(=O)NS(=O)(=O)c1ccc(C)cc1
carcinogen call (Species: MOUSE, Strain/Sex: B6C3F1/FEMALE, Route: ORAL, Dose: 0, 25000, 50000 PPM IN DIET, Dose: 0, 25000, 50000 PPM IN DIET): inactive; negative
carcinogen call (Species: MOUSE, Strain/Sex: B6C3F1/MALE, Route: ORAL, Dose: 0, 25000, 50000 PPM IN DIET, Dose: 0, 25000, 50000 PPM IN DIET): inactive; negative
carcinogen call (Species: RAT, Strain/Sex: F344/FEMALE, Route: ORAL, Dose: 0, 12000, 24000 PPM IN DIET, Dose: 0, 12000, 24000 PPM IN DIET): inactive; negative
carcinogen call (Species: RAT, Strain/Sex: F344/MALE, Route: ORAL, Dose: 0, 12000, 24000 PPM IN DIET, Dose: 0, 12000, 24000 PPM IN DIET): inactive; negative

N[C@@H](CCC(=O)NNc1ccc(CO)cc1)C(=O)O
carcinogen call (Species: MOUSE, Strain/Sex: SWISS/FEMALE, Route: SUBCUTANEOUS, Dose: 0, 100 UG IN 0.01 ML PHYSIOLOGICAL SALINE 1/WK FOR 5 WK (STUDY DURATION: LIFETIME)): inactive; negative
carcinogen call (Species: MOUSE, Strain/Sex: SWISS/FEMALE, Route: SUBCUTANEOUS, Dose: 0, 100 UG IN 0.01 ML PHYSIOLOGICAL SALINE ONCE (STUDY DURATION: LIFETIME)): inactive; negative
carcinogen call (Species: MOUSE, Strain/Sex: SWISS/MALE, Route: SUBCUTANEOUS, Dose: 0, 50 UG IN 0.01 ML PHYSIOLOGICAL SALINE ONCE (STUDY DURATION: LIFETIME)): inactive; negative
carcinogen call (Species: MOUSE, Strain/Sex: SWISS/MALE, Route: SUBCUTANEOUS, Dose: 0, 100 UG IN 0.01 ML PHYSIOLOGICAL SALINE 1/WK FOR 5 WK (STUDY DURATION: LIFETIME)): inactive; negative
